In PubChem BioAssay AID248 (DTP/NCI, 2004) one finds T/C data, which are given here for 18 molecules.

This assay has as its system L1210 leukemia ip in BDF1 mice, survival T/C. As to the kind of experiment: NCI In Vivo Anticancer Drug Screen. Data for tumor model L1210 Leukemia (intraperitoneal) in B6D2F1 (BDF1) mice. The conditions noted are these: endpoint: mean survival time, higher = longer survival. In a few lines: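 Antitumor effect is assessed in tumor-bearing animals. Survival in the compound arm is compared with a vehicle-dosed control arm and expressed as their quotient.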

Setting [1] is: dose: 100.0 mg/kg/injection, schedule: Q01DX009 (ip), vehicle: Klucel (hydroxypropylcellulose) (HPC).
Setting [2] is: dose: 100.0 mg/kg/injection, schedule: Q04DX003 (ip), vehicle: saline.
The mark [3] stands for this setting: dose: 200.0 mg/kg/injection, schedule: Q01DX009 (ip), vehicle: Klucel (hydroxypropylcellulose) (HPC).
[4] abbreviates: dose: 200.0 mg/kg/injection, schedule: Q04DX003 (ip), vehicle: saline.
Setting [5] is: dose: 100.0 mg/kg/injection, schedule: Q01DX001 (ip), vehicle: saline.
Where [6] appears, read: dose: 200.0 mg/kg/injection, schedule: Q01DX001 (ip), vehicle: saline.
Where [7] appears, read: dose: 400.0 mg/kg/injection, schedule: Q01DX001 (ip), vehicle: saline.
The mark [8] stands for this setting: dose: 100.0 mg/kg/injection, schedule: Q01DX001 (ip), vehicle: Klucel (hydroxypropylcellulose) (HPC).
Where [9] appears, read: dose: 200.0 mg/kg/injection, schedule: Q01DX001 (ip), vehicle: Klucel (hydroxypropylcellulose) (HPC).
Where [10] appears, read: dose: 400.0 mg/kg/injection, schedule: Q04DX003 (ip), vehicle: saline.

“And” between values parts separate entries of the source, which are not always exact repeats. Identical values can stand only once. Inconclusive results and toxic doses are left out.

`O=C(c1ccc(Cl)cc1Cl)C(CS(=O)(=O)O)CS(=O)(=O)O`: the T/C by setting is: (dose: 100.0 mg/kg/injection, schedule: Q04DX003 (ip), vehicle: saline with Tween-80) 99 % of control; (dose: 200.0 mg/kg/injection, schedule: Q04DX003 (ip), vehicle: saline with Tween-80) 98 % of control; (dose: 400.0 mg/kg/injection, schedule: Q04DX003 (ip), vehicle: saline with Tween-80) 100 % of control.
Regarding `CN(C)N=Nc1cccnc1`, the T/C by setting is: (dose: 8.0 mg/kg/injection, schedule: Q01DX009 (ip), vehicle: saline) 97 % of control; (dose: 9.5 mg/kg/injection, schedule: Q01DX001 (ip), vehicle: saline) 106 % of control; (dose: 14.0 mg/kg/injection, schedule: Q01DX009 (ip), vehicle: saline) 103 % of control; (dose: 19.0 mg/kg/injection, schedule: Q01DX001 (ip), vehicle: saline) 106 % of control; (dose: 23.0 mg/kg/injection, schedule: Q01DX009 (ip), vehicle: saline) 108 % of control; (dose: 38.0 mg/kg/injection, schedule: Q01DX001 (ip), vehicle: saline) 117 % of control. Also, the T/C runs as follows: (dose: 57.0 mg/kg/injection, schedule: Q01DX009 (ip), vehicle: saline) 150 % of control; (dose: 86.0 mg/kg/injection, schedule: Q01DX009 (ip), vehicle: saline) 162 % of control.
As for `O=C(COc1ccc(Cl)cc1)Nc1ccc(S(=O)(=O)O)c2ccccc12`, the T/C was 98 % of control (dose: 100.0 mg/kg/injection, schedule: Q04DX002 (ip), vehicle: Klucel (hydroxypropylcellulose) (HPC)); 98 % of control (dose: 200.0 mg/kg/injection, schedule: Q04DX002 (ip), vehicle: Klucel (hydroxypropylcellulose) (HPC)); 98 % of control (dose: 400.0 mg/kg/injection, schedule: Q04DX002 (ip), vehicle: Klucel (hydroxypropylcellulose) (HPC)).
As to `COc1ccc(-c2nc(SCc3ccc(Cl)cc3)[nH]c(=O)c2CCO)cc1`, the T/C is 95 % of control (dose: 50.0 mg/kg/injection, schedule: Q01DX009 (ip), vehicle: Klucel (hydroxypropylcellulose) (HPC)); 101 % of control under setting [1]; 111 % of control under setting [2]; 96 % of control under setting [3]; 95 % of control under setting [4].
For the molecule `COc1ccc(C(C#N)C(O)(c2ccccc2)c2ccccc2)cc1` (configuration not stated), the T/C (dose: 50.0 mg/kg/injection, schedule: Q01DX001 (ip), vehicle: saline) is 104 % of control; the T/C under setting [5] is 107 % of control; the T/C under setting [6] is 98 % of control; the T/C under setting [7] was 93 % of control.
On to `O=C1c2cccc3cccc(c23)C(=O)N1Cc1ccccc1`, for which the T/C is, setting by setting: under setting [5], 95 % of control; under setting [6], 103 % of control; under setting [7], 91 % of control.
As to `Nc1nc2nnc(CNc3ccc(C(=O)NC(CCC(=O)O)C(=O)O)cc3)nc2c(=O)[nH]1` (configuration not stated), the T/C reads like this: under setting [8], 94 % of control; under setting [9], 103 % of control.
For the molecule `CCC(C)C(C1=C(O)c2ccccc2C(=O)C1=O)C1=C(O)c2ccccc2C(=O)C1=O` (configuration not stated), the T/C was 97 % of control (dose: 75.0 mg/kg/injection, schedule: Q01DX001 (ip), vehicle: carboxymethylcellulose (CMC)) and 104 % of control (dose: 150.0 mg/kg/injection, schedule: Q01DX001 (ip), vehicle: carboxymethylcellulose (CMC)).
Regarding `CCOC(=O)CC(N)CC(=O)OCC`, the T/C under setting [5] was 104 % of control, the T/C under setting [6] was 104 % of control and the T/C under setting [7] is 106 % of control.
Turning to `N=C(N)SCc1csc(N)n1`, the T/C runs as follows: (dose: 25.0 mg/kg/injection, schedule: Q04DX003 (ip), vehicle: saline) 119 % of control; (dose: 50.0 mg/kg/injection, schedule: Q04DX003 (ip), vehicle: saline) 111 % of control; (dose: 100.0 mg/kg/injection, schedule: Q01DX009 (ip), vehicle: saline) 112 % of control; under setting [2], 100 % of control and 117 % of control; (dose: 200.0 mg/kg/injection, schedule: Q01DX009 (ip), vehicle: saline) 96 % of control.
Take `CCOCC1COC(c2ccc3c(c2)OCO3)O1` (configuration not stated): the T/C was 102 % of control (dose: 222.0 mg/kg/injection, schedule: Q01DX Z (ip), vehicle: methylcellulose (MC)); 104 % of control (dose: 333.0 mg/kg/injection, schedule: Q01DX Z (ip), vehicle: methylcellulose (MC)); 102 % of control (dose: 500.0 mg/kg/injection, schedule: Q01DX Z (ip), vehicle: methylcellulose (MC)).
As to `CCCC(=O)/C=C/c1ccc(C)cc1`, the T/C runs as follows: under setting [2], 96 % of control; under setting [4], 112 % of control; under setting [10], 96 % of control.
Turning to `Cc1ccc(Cl)cc1NC(=O)Oc1ccccc1C(=O)OCc1ccccc1`, the T/C by setting is: (dose: 100.0 mg/kg/injection, schedule: Q01DX009 (ip), vehicle: saline with Tween-80) 97 % of control; (dose: 200.0 mg/kg/injection, schedule: Q01DX009 (ip), vehicle: saline with Tween-80) 100 % of control; (dose: 400.0 mg/kg/injection, schedule: Q01DX009 (ip), vehicle: saline with Tween-80) 94 % of control.
Take `O=C(O)/C=C\Cc1cccc(=O)[nH]1`: the T/C is, setting by setting: (dose: 50.0 mg/kg/injection, schedule: Q01DX001 (ip), vehicle: Klucel (hydroxypropylcellulose) (HPC)) 94 % of control; under setting [8], 95 % of control; under setting [9], 97 % of control.
For the molecule `CCCCCSc1nccc(N)n1`, the T/C is, setting by setting: (dose: 100.0 mg/kg/injection, schedule: Q01DX001 (ip), vehicle: saline with Tween-80) 97 % of control; (dose: 200.0 mg/kg/injection, schedule: Q01DX001 (ip), vehicle: saline with Tween-80) 103 % of control.
Regarding `O=S(=O)(O)c1cc(O)c(S(=O)(=O)O)cc1O`, the T/C was 98 % of control under setting [2], 92 % of control under setting [4] and 110 % of control under setting [10].
For the molecule `c1ccc(C2SCCCS2)cc1`, the T/C was 96 % of control under setting [1]; 97 % of control under setting [3]; 94 % of control (dose: 400.0 mg/kg/injection, schedule: Q01DX009 (ip), vehicle: Klucel (hydroxypropylcellulose) (HPC)).
Take `C=C(C(=O)OC1CC2CCC(C1)N2C)c1ccccc1` (configuration not stated): the T/C is 90 % of control (dose: 1.25 mg/kg/injection, schedule: Q01DX Z (ip), vehicle: saline); 113 % of control (dose: 1.25 mg/kg/injection, schedule: Q04DX003 (ip), vehicle: Klucel (hydroxypropylcellulose) (HPC)); 105 % of control (dose: 2.5 mg/kg/injection, schedule: Q01DX Z (ip), vehicle: saline); 101 % of control (dose: 2.5 mg/kg/injection, schedule: Q04DX003 (ip), vehicle: Klucel (hydroxypropylcellulose) (HPC)); 97 % of control (dose: 5.0 mg/kg/injection, schedule: Q01DX Z (ip), vehicle: saline); 107 % of control (dose: 5.0 mg/kg/injection, schedule: Q04DX003 (ip), vehicle: Klucel (hydroxypropylcellulose) (HPC)). In addition, the T/C was 111 % of control (dose: 10.0 mg/kg/injection, schedule: Q01DX001 (ip), vehicle: carboxymethylcellulose (CMC)); 106 % of control (dose: 10.0 mg/kg/injection, schedule: Q04DX003 (ip), vehicle: Klucel (hydroxypropylcellulose) (HPC)); 93 % of control (dose: 20.0 mg/kg/injection, schedule: Q01DX001 (ip), vehicle: carboxymethylcellulose (CMC)).
